Drawing on patent publication US8357700B2, “2,3-disubstituted piperidine orexin receptor antagonists” (Merck Sharp & Dohme Corp., priority 2008, dated 2013), this text covers Ki for five molecules.

The structures appear in SMILES notation.

By Ki is commonly meant the equilibrium dissociation constant of an inhibitor or competing ligand from its target. Read a low Ki as higher affinity.

The target in one assay is T1, orexin-1 receptor (OX1R) (UniProt O43613).
T1 sequence (O43613 1-425): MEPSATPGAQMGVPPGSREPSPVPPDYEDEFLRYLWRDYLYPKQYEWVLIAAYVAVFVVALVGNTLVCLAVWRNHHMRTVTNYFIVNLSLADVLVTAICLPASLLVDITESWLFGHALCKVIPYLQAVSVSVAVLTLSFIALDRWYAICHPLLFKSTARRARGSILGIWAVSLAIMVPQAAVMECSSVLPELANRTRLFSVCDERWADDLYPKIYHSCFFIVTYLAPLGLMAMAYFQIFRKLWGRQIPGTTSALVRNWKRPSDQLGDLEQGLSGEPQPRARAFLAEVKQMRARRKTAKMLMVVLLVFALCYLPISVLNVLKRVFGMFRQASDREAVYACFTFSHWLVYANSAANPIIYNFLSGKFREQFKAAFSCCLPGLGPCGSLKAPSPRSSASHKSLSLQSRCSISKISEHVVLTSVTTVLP
Description: radioligand binding assay, membranes from CHO cells expressing OX1 receptor. The following applies: CHO cell membranes. As to the method: (§1) The utility of the compounds in accordance with the present invention as orexin receptor OX1R and/or OX2R antagonists may be readily determined without undue experimentation by methodology well known in the art, including the “FLIPR Ca^2+ Flux Assay” (Okumura et al., Biochem. Biophys. Res. Comm. 280:976-981, 2001). In a typical experiment the OX1 and OX2 receptor antagonistic activity of the compounds of the present invention was determined in accordance with the following experimental method. For intracellular calcium measurements, Chinese hamster ovary (CHO) cells expressing the rat OX1 receptor or the human OX2 receptor, are grown in Iscove's modified DMEM containing 2 mM L-glutamine, […], 1% hypoxanthine-thymidine supplement, 100 U/ml penicillin, 100 ug/ml streptomycin and 10% heat-inactivated fetal calf serum (FCS). The cells are seeded at 20,000 cells/well into Becton-Dickinson black 384-well clear bottom sterile plates coated with poly-D-lysine. All reagents were from GIBCO-Invitrogen Corp. The seeded plates are incubated overnight at 37° C. and 5% CO2. Ala-6,12 human orexin-A as the agonist is prepared as a 1 mM stock solution in 1% bovine serum albumin (BSA) and diluted in assay buffer (HBSS containing 20 mM HEPES, 0.1% BSA and 2.5 mM probenecid, pH7.4) for use in the assay at a final concentration of 70 pM. Test compounds are prepared as 10 mM stock solution in DMSO, then diluted in 384-well plates, first in DMSO, then assay buffer. On the day of the assay, cells are washed 3 times with 100 ul assay buffer and then incubated for 60 min (37° C., 5% CO2) in 60 ul assay buffer containing 1 uM Fluo-4AM ester, 0.02% pluronic acid, and 1% BSA. The dye loading solution is then aspirated and cells are washed 3 times with 100 ul assay buffer. 30 ul of that same buffer is left in each well. Within the Fluorescent Imaging Plate Reader (FLIPR, Molecular Devices), test compounds are added to the plate in a volume of 25 ul, incubated for 5 min and finally 25 ul of agonist is added. Fluorescence is measured for each well at 1 second intervals for 5 minutes and the height of each fluorescence peak is compared to the height of the fluorescence peak induced by 70 pM Ala-6,12 orexin-A with buffer in place of antagonist. For each antagonist, IC50 value (the concentration of compound needed to inhibit 50% of the agonist response) is determined. Alternatively, compound potency can be assessed by a radioligand binding assay (described in Bergman et. al. Bioorg. Med. Chem. Lett. 2008, 18, 1425-1430) in which the inhibition constant (Ki) is determined in membranes prepared from CHO cells expressing either the orexin-1 (OX1) or orexin-2 (OX2) receptor. The intrinsic orexin receptor antagonist activity of a compound which may be used in the present invention may be determined by these assays.

The target in the next assay is T2, orexin-2 receptor (OX2R) (Homo sapiens, UniProt O43614).
T2 construct: expressed in transfected cells; host or cells: CHO cells (membranes)
T2 sequence (O43614 1-444): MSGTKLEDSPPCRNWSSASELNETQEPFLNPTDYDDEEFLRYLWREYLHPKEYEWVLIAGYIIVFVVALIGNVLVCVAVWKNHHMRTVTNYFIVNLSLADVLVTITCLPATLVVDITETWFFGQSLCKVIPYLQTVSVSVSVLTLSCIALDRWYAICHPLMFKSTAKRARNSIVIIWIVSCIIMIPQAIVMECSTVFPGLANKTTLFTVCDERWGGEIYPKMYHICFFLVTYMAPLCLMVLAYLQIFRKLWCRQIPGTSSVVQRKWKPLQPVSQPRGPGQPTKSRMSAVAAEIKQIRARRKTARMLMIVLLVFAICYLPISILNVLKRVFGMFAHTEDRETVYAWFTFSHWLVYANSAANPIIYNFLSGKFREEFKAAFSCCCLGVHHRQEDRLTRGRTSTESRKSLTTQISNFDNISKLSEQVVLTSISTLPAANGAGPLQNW
The experiment in a line: radioligand binding assay, membranes from CHO cells expressing OX2 receptor. The settings on record: CHO cell membranes. As for the experimental part: as §1

For the molecule `Cc1ccc(-n2nccn2)c(C(=O)N2CCC[C@@H](COc3ccc(Br)cn3)[C@@H]2C)c1` (stereo in doubt) [A-7, 5-bromo-2-({2-methyl-1-[5-methyl-2-(2H-1,2,3-triazol-2-yl)benzoyl]piperidin-3-yl}methoxy)pyridine], the inhibition constant Ki was determined as 1.1 nM at orexin-1 receptor (OX1R) and 6.4 nM at orexin-2 receptor (OX2R).
For `Cc1ccc(-n2nccn2)c(C(=O)N2CCC[C@@H](COc3nccc4ccccc34)[C@@H]2C)c1` (stereo in doubt) [A-8, 1-({2-methyl-1-[5-methyl-2-(2H-1,2,3-triazol-2-yl)benzoyl]piperidin-3-yl}methoxy)isoquinoline], the Ki on orexin-1 receptor (OX1R) worked out at 0.5 nM; on orexin-2 receptor (OX2R), 2.1 nM.
Take `Cc1ccc(-n2nccn2)c(C(=O)N2CCC[C@@H](COc3cccc(Br)n3)[C@@H]2C)c1` (stereo in doubt) [A-9, 2-bromo-6-({2-methyl-1-[5-methyl-2-(2H-1,2,3-triazol-2-yl)benzoyl]piperidin-3-yl}methoxy)pyridine]: the Ki on orexin-1 receptor (OX1R) turned out to be 2.7 nM; on orexin-2 receptor (OX2R), 7.5 nM.
With `Cc1ccc(-n2nccn2)c(C(=O)N2CCC[C@@H](COc3ccnc4ccccc34)[C@@H]2C)c1` (stereo in doubt) [A-10, 4-({2-methyl-1-[5-methyl-2-(2H-1,2,3-triazol-2-yl)benzoyl]piperidin-3-yl}methoxy)quinoline], the Ki is 0.6 nM on orexin-1 receptor (OX1R) and 2.6 nM at orexin-2 receptor (OX2R).
Taken in the same sequence, the figures for `Cc1ccc(-n2nccn2)c(C(=O)N2CCC[C@@H](COc3ccccn3)[C@@H]2C)c1` [A-6] were 1 nM and 39 nM.
